Laboratory results reported in publication PMC3950631, “L-Phenylalanine Transport in Saccharomyces cerevisiae: Participation of GAP1, BAP2, and AGP1” (Journal of Amino Acids, 2014).
Like-named read-outs stand apart in the source and are kept apart here.

Tests used:
Assay in all cases: inhibition of […] L-[…]-phenylalanine uptake into intact yeast cells
Assay type in all cases: cell-based
Agp1p = biological target: T1, Agp1p (Saccharomyces cerevisiae, UniProt P25376)
T1 construct: gene AGP1; native chromosomal permease in intact yeast cells, full length, plasma membrane; assigned by gene disruption
T1 sequence (P25376 1-633): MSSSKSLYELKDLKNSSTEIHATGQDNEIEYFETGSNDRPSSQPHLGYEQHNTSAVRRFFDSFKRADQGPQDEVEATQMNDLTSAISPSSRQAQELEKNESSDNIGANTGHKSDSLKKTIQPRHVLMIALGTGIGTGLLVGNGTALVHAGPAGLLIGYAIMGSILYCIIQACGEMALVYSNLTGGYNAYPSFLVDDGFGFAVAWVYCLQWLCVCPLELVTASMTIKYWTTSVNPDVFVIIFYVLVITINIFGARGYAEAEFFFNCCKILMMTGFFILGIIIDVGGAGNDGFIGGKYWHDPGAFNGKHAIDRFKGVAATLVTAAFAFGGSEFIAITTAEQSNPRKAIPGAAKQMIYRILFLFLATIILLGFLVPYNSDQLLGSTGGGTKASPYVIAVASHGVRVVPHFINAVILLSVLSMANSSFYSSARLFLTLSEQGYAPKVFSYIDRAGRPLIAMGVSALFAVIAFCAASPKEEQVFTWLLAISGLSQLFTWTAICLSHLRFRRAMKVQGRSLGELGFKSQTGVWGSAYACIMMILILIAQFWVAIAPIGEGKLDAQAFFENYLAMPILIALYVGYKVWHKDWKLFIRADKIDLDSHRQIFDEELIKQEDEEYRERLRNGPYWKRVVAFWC

Bap2p = biological target: T2, Bap2p (Saccharomyces cerevisiae, UniProt P38084); details: read-out: Percentage inhibition / Y294Δagp1
T2 construct: gene BAP2; native chromosomal permease in intact yeast cells, full length, plasma membrane; assigned by gene disruption
T2 sequence (P38084 1-609): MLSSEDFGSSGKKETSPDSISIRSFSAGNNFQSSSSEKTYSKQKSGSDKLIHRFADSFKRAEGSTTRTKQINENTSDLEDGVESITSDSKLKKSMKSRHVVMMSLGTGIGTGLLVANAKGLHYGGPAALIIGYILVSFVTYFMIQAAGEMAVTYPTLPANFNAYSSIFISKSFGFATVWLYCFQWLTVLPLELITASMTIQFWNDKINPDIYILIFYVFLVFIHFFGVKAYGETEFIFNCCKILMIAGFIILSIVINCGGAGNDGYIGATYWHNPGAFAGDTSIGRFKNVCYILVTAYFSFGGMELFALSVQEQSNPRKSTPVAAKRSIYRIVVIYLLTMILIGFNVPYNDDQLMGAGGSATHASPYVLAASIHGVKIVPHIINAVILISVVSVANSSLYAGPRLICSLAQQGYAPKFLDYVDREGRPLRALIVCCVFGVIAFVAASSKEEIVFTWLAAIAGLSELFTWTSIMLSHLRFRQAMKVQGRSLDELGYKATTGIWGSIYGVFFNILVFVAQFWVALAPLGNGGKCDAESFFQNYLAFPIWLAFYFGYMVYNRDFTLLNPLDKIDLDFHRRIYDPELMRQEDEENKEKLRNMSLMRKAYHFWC

Gap1p = biological target: T3, Gap1p (Saccharomyces cerevisiae, UniProt P19145)
T3 construct: gene GAP1; native chromosomal permease in intact yeast cells, full length, plasma membrane; assigned by gene disruption and growth medium
T3 sequence (P19145 1-602): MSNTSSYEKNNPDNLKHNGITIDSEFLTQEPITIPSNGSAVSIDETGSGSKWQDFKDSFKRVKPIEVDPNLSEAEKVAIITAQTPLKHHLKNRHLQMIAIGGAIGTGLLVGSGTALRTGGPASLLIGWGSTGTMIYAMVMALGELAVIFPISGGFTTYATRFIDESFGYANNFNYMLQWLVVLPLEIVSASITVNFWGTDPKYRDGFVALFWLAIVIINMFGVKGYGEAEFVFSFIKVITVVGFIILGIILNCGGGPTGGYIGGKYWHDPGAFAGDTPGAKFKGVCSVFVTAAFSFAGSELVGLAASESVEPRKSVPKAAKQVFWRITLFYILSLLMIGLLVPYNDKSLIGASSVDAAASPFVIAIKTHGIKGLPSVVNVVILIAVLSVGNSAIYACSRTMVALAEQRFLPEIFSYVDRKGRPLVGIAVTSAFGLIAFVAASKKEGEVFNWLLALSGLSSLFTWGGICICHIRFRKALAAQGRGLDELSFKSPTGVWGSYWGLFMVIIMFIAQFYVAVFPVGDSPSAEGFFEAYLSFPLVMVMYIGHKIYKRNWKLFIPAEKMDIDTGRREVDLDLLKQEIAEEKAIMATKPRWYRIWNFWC

[1] = read-out: Percentage inhibition / Y294Δbap2Δgap1 / MP
[2] = read-out: Percentage inhibition / Y294Δbap2

inhibition at 200 µM (Bap2p) | inhibition at 200 µM (Gap1p; [2]) | Structure (SMILES) | also measured
72% | 75% | CC(C)C[C@H](N)C(=O)O [Leucine] | inhibition at 200 µM (Agp1p; [1]): 34%
– | 40% | NC(=O)NCCC[C@H](N)C(=O)O [Citrulline] | –
– | – | CC[C@H](C)[C@H](N)C(=O)O [Isoleucine] | inhibition at 200 µM (Gap1p; read-out: Percentage inhibition / Y294): 71%
67% | – | NC(Cc1cccs1)C(=O)O (racemic) [β-2-thienylalanine] | –
– | 37% | NC(=O)C[C@H](N)C(=O)O [Asparagine] | inhibition at 200 µM (Agp1p; [1]): 48%
– | 71% | CC(C)[C@H](N)C(=O)O [Valine] | –
48% | 42% | CC(CC(N)C(=O)O)C(F)(F)F (racemic) [DL-trifluoroleucine] | –
– | 86% | N[C@@H](Cc1c[nH]c2ccccc12)C(=O)O [Tryptophan] | inhibition at 200 µM (Agp1p; read-out: Percentage inhibition / Y294Δgap1 / MA): 18%

Structure (SMILES) | inhibition at 200 µM (Bap2p) | inhibition at 200 µM (Gap1p; [2]) | also measured
N[C@@H](Cc1ccc(O)cc1)C(=O)O [Tyrosine] | – | 81% | –
